Tested on: O2^- production in human neutrophils
Experiment: Production of O2^- in human neutrophils (PMA-stimulated)
Format: cell-based
Description: Normal human peripheral blood was heparin-treated and diluted with equal amount of Hank's balanced salt solution (HBSS: Ca^2+ and Mg^2+ free). The diluted blood was put into a centrifuge tube containing therein Ficoll-Hypaque(Sigma, St. Louis, Mo., U.S.A.) layer having a density of 1.077 piled up on Ficoll-Hypaque layer having a density of 1.119, and then centrifuged at 700×g for 30 minutes to obtain monocytes from the layer between Ficoll-Hypaque layer having a density of 1.077 and serum layer, and neutrophils from the layer between Ficoll-Hypaque layer having a density of 1.077 and that having a density of 1.119. The separated cells were washed twice with 4° C. HBSS(Ca^2+ and Mg^2+ free) and suspended in RPMI 1640 medium(Gibco, Grand Island, N.Y., U.S.A.) containing 10% fetal bovine serum(FBS, Hyclone, Logan, Utah, U.S.A.). The suspensions were added to the wells of 24-well incubation plate(Costar, Cambridge, Mass., U.S.A.) and incubated at 37° C. for 2 hours to obtain monocytes, macrophages and neutrophils. Inflammatory responses are known as a cascade reaction comprising the secretion of various cytokines, e.g., IL-1, from immune cells stimulated by various stimulants; production of phospholipase A2, lysosomal enzyme, reactive oxygen species, etc. by other immune cells stimulated by said cytokines; and damage of tissues induced by the above products(Pruzanski, W. and […]., Immunol. Today, 12, 143(1991)). The ability of acanthoic acid to block the inflammatory reactions was tested by measuring their inhibitory activity to the production of reactive oxygen species, i.e., H2 O2 and O2^-. For the purpose of measuring the amount of produced O2^-, neutrophils suspended in RPMI 1640 medium in a concentration of 1×10^6 cells/800 μl was added to a part of the wells of 24-well plate and 10 μg/ml of superoxide dismutase(SOD, Sigma) was added to the empty wells. The plate was stored at 37° C. for 2 minutes, and cytochrome C(3 mg/ml, Sigma) was added to the wells in a concentration of 100 μl/well. The cells were treated with 10, 20 and 50 μg/ml of acanthoic acid for an hour and reacted at 37° C. for 20 minutes by introducing 10^-7 PMA as a stimulant. The reaction was terminated by adding 1 mM N-ethylmaleimide(Sigma) to the wells and the culture was centrifuged at 1,600×g for 10 minutes to obtain a supernatant. The change of color of the supernatant caused by the reduction of cytochrome C was measured at 550 nm by using a UV-Visible spectrophotometer (Kontron Instrument, Milano, Italy). The amount of produced O2^- was represented by the concentration of SOD which can suppress the reduction of cytochrome C in 1×10^6 cells for 20 minutes, by employing the extinction coefficient of cytochrome C(E550 nm =1.83×10^4 […] cm^-1).

## C=C[C@@]1(C)CC=C2C(CCC3[C@](C)(C(=O)O)CCC[C@@]23C)C1 (single isomer, unassigned; (-)) [acanthoic acid, (-)-pimara-9(11),15-diene-19-oic acid]
Neutrophil, 50 μg/ml, PMA
  inhibition at 50 µg/mL: 72%
Neutrophil, 20 min, PMA + acanthoic acid 10 μg/ml, PMA = 100, read-out: Amount of produced reactive oxygen species, O2^- (% to the control group)
  activity at 10 µg/mL: 76.8%
Neutrophil, 20 min, PMA + acanthoic acid 20 μg/ml, PMA = 100, read-out: Amount of produced reactive oxygen species, O2^- (% to the control group)
  activity at 20 µg/mL: 31.6%
Neutrophil, 20 min, PMA + acanthoic acid 50 μg/ml, PMA = 100, read-out: Amount of produced reactive oxygen species, O2^- (% to the control group)
  activity at 50 µg/mL: 28.4%
PMA + acanthoic acid 10 μg/ml
  Amount of produced reactive oxygen species, O2^-: 11.9 nM/20 min.
PMA + acanthoic acid 20 μg/ml
  Amount of produced reactive oxygen species, O2^-: 4.9 nM/20 min.
PMA + acanthoic acid 50 μg/ml
  Amount of produced reactive oxygen species, O2^-: 4.4 nM/20 min.

From patent US5900434A, “Method for inhibiting the production of interleukin-1 or tumor necrosis factor-α by administering acanthoic acid” (Korea Institute of Science and Technology, priority 1994, dated 1999)
